Test results taken from publication PMC12500691 (Frontiers in Cellular and Infection Microbiology, 2025).

Tests used:
SARS-CoV-2 proteins = assay type: binding, SARS-CoV-2 (Wuhan variant)
SARS-CoV-2 ORF7a = SARS-CoV-2 ORF7a (Severe acute respiratory syndrome coronavirus 2, UniProt P0DTC7); experiment: biochemical; assay type: binding, SARS-CoV-2 (Wuhan variant)
Chain of SARS-CoV-2 ORF7a (P0DTC7 16-96): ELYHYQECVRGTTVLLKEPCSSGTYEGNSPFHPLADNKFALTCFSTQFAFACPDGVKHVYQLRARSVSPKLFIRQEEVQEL

| Molecule | interaction with the SARS-CoV-2 proteins (SARS-CoV-2 proteins) | Kd (SARS-CoV-2 ORF7a) |
| --- | --- | --- |
| synthetic control peptide: synthetic control peptide with an alpha-helical structure and a length of 29 amino acids, purchased from Biomatik (DKDGDLKTQIEKLWTEVNALKEIQALQTVCL) | did not show an interaction with the SARS-CoV-2 proteins |  |
| CC[C@H](C)[C@H](NC(=O)[C@H](CCCCN)NC(=O)[C@H](CCC(=O)O)NC(=O)[C@H](CCCCN)NC(=O)[C@H](CO)NC(=O)[C@H](CCCCN)NC(=O)[C@H](CCCNC(=N)N)NC(=O)[C@H](Cc1ccccc1)NC(=O)[C@H](Cc1ccccc1)NC(=O)[C@H](CC(=O)O)NC(=O)CNC(=O)[C@H](CC(C)C)NC(=O)[C@@H](N)CC(C)C)C(=O)NCC(=O)N[C@@H](CCCCN)C(=O)N[C@@H](CCC(=O)O)C(=O)N[C@@H](Cc1ccccc1)C(=O)N[C@@H](CCCCN)C(=O)N[C@@H](CCCNC(=N)N)C(=O)N[C@H](C(=O)N[C@H](C(=O)N[C@@H](CCC(N)=O)C(=O)N[C@@H](CCCNC(=N)N)C(=O)N[C@H](C(=O)N[C@@H](CCCCN)C(=O)N[C@@H](CC(=O)O)C(=O)N[C@@H](Cc1ccccc1)C(=O)N[C@@H](CC(C)C)C(=O)N[C@@H](CCCNC(=N)N)C(=O)N[C@@H](CC(N)=O)C(=O)N[C@@H](CC(C)C)C(=O)N[C@H](C(=O)N1CCC[C@H]1C(=O)N[C@@H](CCCNC(=N)N)C(=O)N[C@H](C(=O)N[C@@H](CCC(=O)O)C(=O)N[C@@H](CO)C(=O)O)[C@@H](C)O)C(C)C)[C@@H](C)CC)C(C)C)[C@@H](C)CC [LL-37] |  | 140 ± 80 nM |
